Measured values from article doi:10.1101/2025.01.28.635286v2 (bioRxiv, 2025).

Experiments:
Format in all cases: cell-based, human
[1] = test system: phospho-cofilin (serine 3); experiment: Western blot of phospho-cofilin in hCMEC/D3 monolayers; conditions: TNF-alpha 20 ng/mL, 24 h, western blot normalized to GAPDH, p<0.05
phospho-IRS (serine 307) = experiment: Western blot of phospho-IRS in hCMEC/D3 monolayers; conditions: TNF-alpha 20 ng/mL, 24 h, immunoblot normalized to GAPDH, p<0.01
hCMEC/D3 monolayers = experiment: Confocal microscopy of FITC-Aβ42 uptake in hCMEC/D3 monolayers; conditions: TNF-alpha 20 ng/mL
phospho-dynamin = experiment: Western blot of phospho-dynamin in hCMEC/D3 monolayers; conditions: TNF-alpha 20 ng/mL, 24 h, western blot normalized to GAPDH, p<0.05

tumor necrosis factor-alpha [TNF-alpha]
decrease of phospho-cofilin expression compared to control cells [1]: approximately 2 fold
increase in phospho-IRS expression (serine 307) (phospho-IRS (serine 307)): 3 fold
FITC-Aβ42 fluorescence by confocal microscopy in comparison to control cells (hCMEC/D3 monolayers): increased FITC-Aβ42 fluorescence
increase in phospho-dynamin levels compared to control cells (phospho-dynamin): ~3 fold
